# Reference: patent US9062051B2, “Compounds and pharmaceutical compositions thereof for the treatment of proliferative disorders” (GALAPAGOS NV, priority 2014, dated 2015)
# Assays:
# EphA2 = biological target: T1, EphA2 (UniProt Ref: P29317) (Homo sapiens, UniProt P29317); test: EphA2 assay (Reaction Biology HotSpot radioactive kinase assay); format: biochemical; details: ATP 10 μM; read-out: EphA2 potency IC50
# T1 construct: purchased Reaction Biology
# In short: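 Radiometric HotSpot assay measuring ^33P incorporation from [^33P]-γ-ATP into poly[Glu:Tyr] (4:1) (0.2 mg/mL) with 10 μM ATP. IC50 from serial 1/3 dilutions starting at 10 or 3 μM.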
# EphB4 = biological target: T2, EphB4 (UniProt Ref: Q541P7) (Homo sapiens, UniProt P54760); test: EphB4 assay (Reaction Biology HotSpot radioactive kinase assay); format: biochemical; details: ATP 10 μM; read-out: EphB4 potency IC50
# T2 construct: purchased Reaction Biology
# T2 sequence (P54760 16-987): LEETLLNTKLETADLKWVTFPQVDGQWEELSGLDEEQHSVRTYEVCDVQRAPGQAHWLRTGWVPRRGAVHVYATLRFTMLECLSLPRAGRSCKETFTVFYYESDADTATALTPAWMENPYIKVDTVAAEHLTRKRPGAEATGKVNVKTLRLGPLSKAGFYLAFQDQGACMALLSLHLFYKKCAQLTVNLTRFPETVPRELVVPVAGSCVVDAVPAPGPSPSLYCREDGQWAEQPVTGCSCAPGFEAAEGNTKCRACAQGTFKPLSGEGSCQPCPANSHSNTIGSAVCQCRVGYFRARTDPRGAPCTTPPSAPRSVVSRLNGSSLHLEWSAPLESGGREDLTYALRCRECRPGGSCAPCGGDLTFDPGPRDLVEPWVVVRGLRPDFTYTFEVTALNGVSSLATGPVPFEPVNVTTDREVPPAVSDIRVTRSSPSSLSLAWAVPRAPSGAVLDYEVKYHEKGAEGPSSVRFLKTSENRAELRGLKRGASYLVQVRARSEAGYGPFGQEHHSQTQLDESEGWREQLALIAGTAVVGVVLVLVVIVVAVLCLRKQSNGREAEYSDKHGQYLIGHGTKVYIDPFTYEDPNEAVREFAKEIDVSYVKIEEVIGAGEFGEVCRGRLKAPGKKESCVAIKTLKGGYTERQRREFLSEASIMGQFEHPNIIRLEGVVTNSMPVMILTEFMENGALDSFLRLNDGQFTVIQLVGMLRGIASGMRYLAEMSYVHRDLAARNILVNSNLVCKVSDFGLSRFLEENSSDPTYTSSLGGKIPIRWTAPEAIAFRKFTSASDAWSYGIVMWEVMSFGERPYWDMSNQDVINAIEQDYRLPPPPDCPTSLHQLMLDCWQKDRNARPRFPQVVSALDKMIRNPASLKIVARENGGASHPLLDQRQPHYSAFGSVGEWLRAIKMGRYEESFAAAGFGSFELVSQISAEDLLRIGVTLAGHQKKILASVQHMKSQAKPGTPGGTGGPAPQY
# Description: (§1) Inhibition of EphB4 (UniProt Ref: Q541P7) by a test compound is determined by a commercially available Reaction Biology proprietary nanoliter radioactive HotSpot^SM assay (Reaction Biology, One great valley parkway, Suite 2, Malvern Pa., 19355, USA). The principle of the assay consists of the measurement of incorporated ^33P into poly[Glu:Tyr] (4:1) (0.2 mg/mL) when the substrate is phosphorylated by the enzyme using [^33P]-γ-ATP and ATP (10 μM).
# (§2) To determine the IC50, a serial dilution of compound is tested starting from 10 or 3 μM (highest dilution) with a 1/3 dilution.
# [1] = Pharmacokinetics in mice (exposure, AUC); format: in vivo; details: male, CD1, plasma; mouse, 30 mg/kg, po
# Description: This study was performed with 42 naïve male CD1 mice (18-20 g, 4-5 weeks old). Mice are obtained from Janvier, Le Genest St Isle, France.
# A controlled environment was maintained in the room with optimal conditions of approximately 15 air changes per hour, a temperature of 22±2 C, a relative humidity of 30-70% and a 12 hour light/12 hour dark cycle (nightlight during the night period).
# Pelleted diet for rodents (UAR A04C-10) was used and was provided ad libitum. Before p.o. dosing, the animals are deprived of food for at least 12 hours before compound administration and 4 hours after administration. All animals had free access to tap water.
# […] The i.v. bolus administration is given with a dose volume of 5 mL/kg and the oral administration is given with a dose volume of 10 mL/kg. Actual dose volumes are based on the mean of 10 body weights.
# The vehicle used to formulate compounds for oral administration is methylcellulose in water (0.5% in water)
# From all animals approximately 500 μL blood samples are collected by intra-cardiac puncture under gaseous anesthesia and placed into tubes containing Li-heparin as anticoagulant. Blood samples are collected at various time points (i.v.: 0.05, 0.25, 0.5, 1, 3, 5 and 8 hours after dosing; p.o.: 0.25, 0.5, 1, 3, 5, 8 and 24 hours after dosing). Each mouse is sampled once and euthanized.
# Blood is kept on ice. Within 1 hour after sampling, blood is centrifuged at 5,000 rpm for 10 min at 4° C. Immediately after centrifugation, the resulting plasma samples are collected into polypropylene tubes and are kept frozen at −20° C. pending bioanalysis.
# Plasma samples are assayed by LC-MS/MS. Plasma proteins are precipitated with an excess of methanol containing the internal standard and the corresponding supernatant is injected on a C18 column. Analytes are eluted out the HPLC system by increasing the percentage of the organic mobile phase. An API4000 mass spectrometer (AB Sciex™) is used for the detection and quantification.
# Pharmacokinetic parameters are calculated by non-compartmental analysis using WinNonlin® software (Pharsight, version 5.2).
# EphA4 = biological target: T3, EphA4 (UniProt Ref: P54764) (Homo sapiens, UniProt P54764); test: EphA4 assay (Reaction Biology HotSpot radioactive kinase assay); format: biochemical; details: EphA4 potency; ATP 10 μM
# T3 construct: purchased Reaction Biology
# Description: as §1, with “EphA4” for “EphB4”, “P54764)” for “Q541P7)”
# as §2
# T3 sequence (P54764 20-986): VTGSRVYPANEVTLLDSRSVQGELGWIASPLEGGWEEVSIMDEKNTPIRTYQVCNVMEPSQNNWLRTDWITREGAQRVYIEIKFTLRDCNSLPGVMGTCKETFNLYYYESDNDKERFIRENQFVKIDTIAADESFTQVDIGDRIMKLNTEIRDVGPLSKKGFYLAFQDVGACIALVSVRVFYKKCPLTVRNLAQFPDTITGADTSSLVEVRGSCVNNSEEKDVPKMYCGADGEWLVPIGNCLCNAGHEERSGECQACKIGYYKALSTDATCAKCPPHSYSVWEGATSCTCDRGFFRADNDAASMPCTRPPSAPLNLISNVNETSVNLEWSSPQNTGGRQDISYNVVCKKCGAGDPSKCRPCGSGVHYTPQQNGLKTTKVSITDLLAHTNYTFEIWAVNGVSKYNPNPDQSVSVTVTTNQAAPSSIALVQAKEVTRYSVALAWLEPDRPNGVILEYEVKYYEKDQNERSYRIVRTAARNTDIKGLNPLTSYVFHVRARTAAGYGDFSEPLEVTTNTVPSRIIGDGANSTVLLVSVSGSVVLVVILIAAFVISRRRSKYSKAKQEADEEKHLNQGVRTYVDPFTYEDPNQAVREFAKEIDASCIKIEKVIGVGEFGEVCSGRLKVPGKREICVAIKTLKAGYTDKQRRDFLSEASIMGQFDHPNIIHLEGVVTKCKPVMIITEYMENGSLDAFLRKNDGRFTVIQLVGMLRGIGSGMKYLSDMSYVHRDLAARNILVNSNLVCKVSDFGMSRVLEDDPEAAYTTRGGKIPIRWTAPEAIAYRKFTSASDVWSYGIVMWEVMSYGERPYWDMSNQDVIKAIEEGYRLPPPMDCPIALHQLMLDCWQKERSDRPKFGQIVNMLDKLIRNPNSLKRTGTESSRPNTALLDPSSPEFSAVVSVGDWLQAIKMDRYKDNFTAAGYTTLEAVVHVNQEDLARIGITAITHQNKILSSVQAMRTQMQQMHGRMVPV
# T1 sequence (P29317 24-976): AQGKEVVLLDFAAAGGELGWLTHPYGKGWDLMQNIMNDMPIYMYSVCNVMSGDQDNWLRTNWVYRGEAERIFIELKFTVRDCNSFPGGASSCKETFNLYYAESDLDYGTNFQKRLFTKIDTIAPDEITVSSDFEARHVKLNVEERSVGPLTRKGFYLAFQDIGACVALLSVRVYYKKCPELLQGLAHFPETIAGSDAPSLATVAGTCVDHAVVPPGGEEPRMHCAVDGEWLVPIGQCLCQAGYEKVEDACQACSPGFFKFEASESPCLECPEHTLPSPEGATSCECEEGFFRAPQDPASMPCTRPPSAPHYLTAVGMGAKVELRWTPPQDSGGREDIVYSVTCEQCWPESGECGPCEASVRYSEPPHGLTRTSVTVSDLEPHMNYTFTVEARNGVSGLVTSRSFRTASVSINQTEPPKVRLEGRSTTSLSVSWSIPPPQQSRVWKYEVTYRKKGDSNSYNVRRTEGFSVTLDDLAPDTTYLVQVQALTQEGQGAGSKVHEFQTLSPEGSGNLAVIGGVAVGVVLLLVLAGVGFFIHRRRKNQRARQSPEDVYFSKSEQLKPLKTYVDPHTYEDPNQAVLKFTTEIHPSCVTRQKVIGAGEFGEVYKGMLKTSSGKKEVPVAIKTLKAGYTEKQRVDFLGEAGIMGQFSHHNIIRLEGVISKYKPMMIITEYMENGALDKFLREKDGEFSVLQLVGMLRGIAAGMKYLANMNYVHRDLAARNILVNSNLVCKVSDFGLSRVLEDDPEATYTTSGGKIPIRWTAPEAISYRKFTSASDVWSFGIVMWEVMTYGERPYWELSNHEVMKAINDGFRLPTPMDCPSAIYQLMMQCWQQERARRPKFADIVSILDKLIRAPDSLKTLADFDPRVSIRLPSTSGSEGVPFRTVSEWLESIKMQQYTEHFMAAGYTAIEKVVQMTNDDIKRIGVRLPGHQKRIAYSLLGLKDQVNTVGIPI
compound,measurement,setting,value
"COc1cc(OC)cc(C(=O)Nc2ccc(C)c(-c3ccc4c([C@H](C)O)n[nH]c4n3)c2)c1 [Compound 47, N-{3-[3-((S)-1-Hydroxy-ethyl)-1H-pyrazolo[3,4-b]pyridin-6-yl]-4-methyl-phenyl}-3,5-dimethoxy-benzamide]",IC50,EphA2,0.01 to 25 nM
same,IC50,EphB4,0.01 to 25 nM
same,AUC,[1],39000 ng·h/mL
same,IC50,EphA4,50 to 100 nM
